Consider eleven molecules from patent US20230137562A1, “TAU AGGREGATION INHIBITORS” (priority 2017, published 2023).

A word on the IC50: it is the concentration at which inhibition is half-maximal. A higher IC50 goes with weaker potency.

Ends that are not written are not given here. Peptide text beside a SMILES is read from it. TAMRA = tetramethyl rhodamine dye

One experiment addresses T1, Tau40P301L protein (Homo sapiens, UniProt P10636, P618L).
T1 construct: His; made in house; host or cells: E. coli BL21
The experiment in a line: biochemical. As to conditions: IC50 (μM), Tau40 assay. As to the method: The following describes the experimental method used to evaluate the IC50 of Tau amyloid inhibition by the peptide inhibitors described above. The physical setup of inhibitor peptides in these dose responses is done automatically with an 8-span head on a BioMek3000 liquid handler into Costar optically 96-well clear bottom black plates. Inhibitor peptides are kept frozen at −80° C. in 100% dimethylsulfoxide (DMSO) solution at a concentration of 20 mM and thawed immediately before the assay. The Biomek makes two serial dilutions of a single inhibitor for a duplicate 6-point dose response curve. This is followed by addition a 5×reaction buffer. The final reaction buffer concentration in the assay is 50 mM MES, pH 6.8, 125 mM NaCl, 10 μM Heparin, 50 μM ThT. The Tau substrate is added by a 96-head Multimek liquid handler making a 4:10 dilution of Tau40P301L protein to which DTT is added directly before setting up the assay. The P301 L mutant of tau is associated with features of human tauopathies (Comb et al., supra; Lewis et al., Nature Genetics 25: 402-405 (2000)). The final concentrations of Tau40P301L and DTT in the assay is 2.5 μM and 5 mM, respectively. Amyloid formation is measured by monitoring Thioflavin T (ThT) fluorescence every 10 minutes with excitation and emission wavelengths of 440 and 485 nm using fluorescence plate readers. The assay plates are kept in the plate reader during the whole duration of the assay, and incubated at 37° C. with continuous shaking for 24 hours. Plate reader models Genios and Spectrafluor Plus produced by Tecan are used and data is acquired using Magellan software. The calculation of IC50 is done by an automatic algorithm developed using the R statistical programing language. Briefly, the algorithm uses data exported in excel format from the plate reader to average the cumulative ThT fluorescence for each inhibitor concentration in the 6-point dose response. The IC50 is calculated as the midpoint of a sigmoid curve fitted to the correlation of normalized ThT fluorescence and inhibitor concentration.

A further experiment addresses T2, Ac-VQIINK-NH2 (Homo sapiens, UniProt P10636).
T2 construct: made in house; host or cells: chemical peptide synthesis
The experiment in a line: Inhibition of VQIINK aggregation with peptide inhibitors (ThT). Type of experiment: biochemical. On the procedure:
The following describes the experimental method used to evaluate the IC50 of aggregation of VQIINK (SEQ ID NO:220) inhibition by the peptide inhibitors described above. The peptide sequence comprising Ac-VQIINK-NH2 (C-terminal amidated (SEQ ID NO: 220)) is prepared using the peptide synthetic method described above. The Ac-VQIINK-NH2 (SEQ ID NO: 220) is stored at 10 mM in 100% DMSO at −80° C., and an aliquot volume sufficient for a single aggregation assay plate is removed. The stock aggregation buffer (5×) is prepared with the following: 250 mM NaPhosphate (pH 8.0), 125 mM KCl, and 500 micromolar ThioflavinT (ThT). The aggregation assay is conducted with shaking, at room temperature, on a plate reader model FLX-800 by BioTek. Water for primary Ac-VQIINK-NH2 (SEQ ID NO: 220) dissolution is cooled to 4 degrees Celsius (7.245 milliliters). Buffer is added from the 5×stock (40 microliters, final volume in assay plate is 130 microliters, final buffer concentrations 50 millimolar NaPO4 (pH 8.0); 25 milllimolar KCl; and 100 micromolar ThioflavinT). The assay plate is cooled to 4 degrees Celsius. The Ac-VQIINK-NH2 (105 microliters (SEQ ID NO: 220)) is added to the chilled water (final volume of 7.350 milliliters), this is added into a pooled reservoir, and using a 96-channel robotic pipettor, 70 microliters diluted Ac-VQIINK-NH2 (SEQ ID NO: 220) is added to the assay plate to achieve a final concentration of 50 micromolar in a 200 microliter final assay volume (per well). Data is acquired using Magellan software. The calculation of IC50 is done by an automatic algorithm developed using the R statistical programing language. Briefly, the algorithm uses data exported in excel format from the plate reader to average the cumulative ThT fluorescence for each inhibitor concentration in the 6-point dose response. The IC50 is calculated as the midpoint of a sigmoid curve fitted to the correlation of normalized ThT fluorescence and inhibitor concentration.

A further experiment has as its target His-Tau40P301L Tau (UniProt P10636-8 1-441). The experiment in a line: cell-based or functional assay.
Experiment [1] deals with TauRD (P301S)-Nluc and TauRD (P301S)-Cluc split luciferase compliment pair (human, UniProt P10636-8 244-372; P10636-8 244-372). The experiment in a line: cell-based or functional assay.
Chain of TauRD (P301S)-Nluc and TauRD (P301S)-Cluc split luciferase compliment pair (P10636 561-689 P618S, chain 1 of 2): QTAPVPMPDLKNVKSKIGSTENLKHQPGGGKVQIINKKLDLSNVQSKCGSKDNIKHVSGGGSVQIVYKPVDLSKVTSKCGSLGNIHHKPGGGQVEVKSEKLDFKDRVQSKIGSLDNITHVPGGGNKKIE
Chain of TauRD (P301S)-Nluc and TauRD (P301S)-Cluc split luciferase compliment pair (P10636 561-689 P618S, chain 2 of 2): as the sequence (P10636 561-689 P618S, chain 1 of 2) above

T1 sequence (P10636 1-441 isoform P10636-8 P301L): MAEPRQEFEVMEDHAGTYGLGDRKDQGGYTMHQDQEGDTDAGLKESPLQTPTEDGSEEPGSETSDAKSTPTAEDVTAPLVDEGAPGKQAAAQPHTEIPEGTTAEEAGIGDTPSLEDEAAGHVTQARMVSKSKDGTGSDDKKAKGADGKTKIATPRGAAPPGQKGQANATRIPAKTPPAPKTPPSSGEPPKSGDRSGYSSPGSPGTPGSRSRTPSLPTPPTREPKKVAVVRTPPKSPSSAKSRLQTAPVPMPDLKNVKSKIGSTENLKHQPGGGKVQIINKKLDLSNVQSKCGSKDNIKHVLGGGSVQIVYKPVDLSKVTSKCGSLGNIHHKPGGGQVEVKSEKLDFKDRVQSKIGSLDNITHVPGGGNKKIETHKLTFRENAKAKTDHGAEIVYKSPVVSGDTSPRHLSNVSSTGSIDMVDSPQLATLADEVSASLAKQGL
Chain of His-Tau40P301L Tau (P10636 other isoform, or with tags, fused parts or gaps limits assumed): as the sequence (P10636 1-441 isoform P10636-8 P301L) above

Take `CC[C@H](C)[C@H](NC(=O)[C@H](CCCNC(=N)N)NC(=O)[C@@H](NC(=O)[C@@H](N)Cc1c[nH]c2ccccc12)[C@@H](C)CC)C(=O)N[C@@H](CCCNC(=N)N)C(=O)N[C@@H](Cc1ccc(O)cc1)C(=O)N[C@@H](Cc1c[nH]c2ccccc12)C(=O)O` [compound 152] (H-WIRIRYW-OH): the IC50 against Tau40P301L protein stood at 2.6 µM; against Ac-VQIINK-NH2, 6.02 µM.

`CC[C@H](C)[C@H](NC(=O)[C@@H](N)CCCNC(=N)N)C(=O)N[C@@H](CCCNC(=N)N)C(=O)N[C@@H](CC(C)C)C(=O)N[C@@H](Cc1c[nH]c2ccccc12)C(=O)N[C@@H](Cc1ccc(O)cc1)C(=O)N[C@@H](Cc1c[nH]c2ccccc12)C(=O)O` [compound 60] (H-RIRLWYW-OH): it took 8.01 µM to reach half-maximal inhibition against Tau40P301L protein (IC50).

As for `CC[C@H](C)[C@H](NC(=O)[C@H](Cc1c[nH]c2ccccc12)NC(=O)[C@@H](NC(=O)[C@H](CCCNC(=N)N)NC(=O)[C@@H](N)Cc1c[nH]c2ccccc12)[C@@H](C)CC)C(=O)N[C@@H](CCCNC(=N)N)C(=O)N[C@@H](CC(C)C)C(=O)N[C@@H](Cc1c[nH]c2ccccc12)C(=O)O` [compound 202] (H-WRIWIRLW-OH), the half-maximal inhibitory concentration (IC50) on Ac-VQIINK-NH2 is 3.97 µM.

In turn, `CC[C@H](C)[C@H](NC(=O)[C@H](CCCNC(=N)N)NC(=O)[C@@H](N)Cc1c[nH]c2ccccc12)C(=O)N[C@@H](Cc1c[nH]c2ccccc12)C(=O)N[C@@H](C)C(=O)N[C@@H](CCCNC(=N)N)C(=O)N[C@@H](Cc1ccc(O)cc1)C(=O)N[C@@H](Cc1c[nH]c2ccccc12)C(=O)O` [compound 163] (H-WRIWARYW-OH) registered an IC50 against Tau40P301L protein of 2.95 µM.

As for `CC[C@H](C)[C@H](NC(=O)[C@H](CCCNC(=N)N)NC(=O)[C@@H](NC(=O)[C@H](Cc1c[nH]c2ccccc12)NC(=O)[C@@H](N)Cc1c[nH]c2ccccc12)[C@@H](C)CC)C(=O)N[C@@H](CCCNC(=N)N)C(=O)N[C@@H](Cc1ccc(O)cc1)C(=O)N[C@@H](Cc1c[nH]c2ccccc12)C(=O)N[C@@H](CC(C)C)C(=O)O` [compound 65] (H-WWIRIRYWL-OH), the IC50 at Tau40P301L protein is 1.31 µM; at Ac-VQIINK-NH2 it was 4.88 µM.

Consider `CC[C@H](C)[C@H](NC(=O)[C@H](CCCNC(=N)N)NC(=O)[C@@H](NC(=O)[C@@H](N)CCCNC(=N)N)[C@@H](C)CC)C(=O)N[C@@H](Cc1c[nH]c2ccccc12)C(=O)N[C@@H](CC(C)C)C(=O)N[C@@H](Cc1c[nH]c2ccccc12)C(=O)O` [compound 26] (H-RIRIWLW-OH), for which, at Ac-VQIINK-NH2, the IC50 stood at 1.93 µM.

In turn, `CC[C@H](C)[C@H](N)C(=O)N[C@@H](Cc1c[nH]c2ccccc12)C(=O)N[C@H](C(=O)N[C@@H](CCCNC(=N)N)C(=O)N[C@@H](Cc1ccc(O)cc1)C(=O)N[C@@H](Cc1c[nH]c2ccccc12)C(=O)O)[C@@H](C)CC` [compound 180] (H-IWIRYW-OH) showed an IC50 against Ac-VQIINK-NH2 of 5.43 µM.

In turn, `CC[C@H](C)[C@H](NC(=O)[C@H](CCCNC(=N)N)NC(=O)[C@@H](NC(=O)[C@H](CCCNC(=N)N)NC(=O)[C@@H](N)CC(C)C)[C@@H](C)CC)C(=O)N[C@@H](CCCNC(=N)N)C(=O)N[C@@H](Cc1c[nH]c2ccccc12)C(=O)O` [compound 139] (H-LRIRIRW-OH) yielded an IC50 against Ac-VQIINK-NH2 of 4.31 µM.

For {TAMRA}-RRRRRRRRRGGSGGWRLKVRWW [[TAMRA]-RRRRRRRRR-GGSGG-WRLKVRWW], in the experiment with His-Tau40P301L Tau, the “IC50 (µM), Tau40 assay-Modified peptides (ThT)” value stood at 7.3 µM. For the same molecule, the “EC50 (µM), HEK cell assay, split luciferase complementation” value (“EC50 (µM), HEK cell assay” for short) in experiment [1] stood at 8.2 µM.

Consider {TAMRA}-RRRRRRRRRRGGSGGWRIWIRYW [[TAMRA]-RRRRRRRRRR-GGSGG-WRIWIRYW], for which the “IC50 (µM), Tau40 assay-Modified peptides (ThT)” value with His-Tau40P301L Tau stood at 12.6 µM. Also, the “EC50 (µM), HEK cell assay” value in experiment [1] is 4.1 µM.

RRRRRRRRRGGSGGLFYLRLT [RRRRRRRRR-GGSGG-LFYLRLT]: the “EC50 (µM), HEK cell assay” value in experiment [1] was 9.6 µM.
